According to PubChem BioAssay AID1259407 (Chemical Carcinogenesis Research Information System (CCRIS), 2018):
Active and inactive are the calls of the source. How the calls were made is not given here.

Test system: CCRIS mutagenicity, Ames/micronucleus/aberration tests
Test: CCRIS mutagenicity studies
[1] = Test System: AMES SALMONELLA TYPHIMURIUM, Strain/Indicator: TA98, Metabolic Activation: NONE, Method: PREINCUBATION
[2] = Test System: AMES SALMONELLA TYPHIMURIUM, Strain/Indicator: TA100, Metabolic Activation: NONE, Method: PREINCUBATION
[3] = Test System: AMES SALMONELLA TYPHIMURIUM, Strain/Indicator: TA1535, Metabolic Activation: NONE, Method: PREINCUBATION
[4] = Test System: AMES SALMONELLA TYPHIMURIUM, Strain/Indicator: TA1537, Metabolic Activation: NONE, Method: PREINCUBATION
[5] = Test System: AMES SALMONELLA TYPHIMURIUM, Strain/Indicator: TA100, Metabolic Activation: NONE, Method: STANDARD PLATE

`C1=C2c3ccccc3CCC2CCC1` (configuration not stated) was tested, and the mutagenic call (Test System: AMES SALMONELLA TYPHIMURIUM, Strain/Indicator: TA98, Metabolic Activation: RAT, LIVER, S-9, SODIUM PHENOBARBITAL AND BETA-NAPHTHOFLAVONE, Method: STANDARD PLATE) was “active; positive” and the mutagenic call (Test System: AMES SALMONELLA TYPHIMURIUM, Strain/Indicator: TA100, Metabolic Activation: RAT, LIVER, S-9, SODIUM PHEOBARBITAL AND BETA-NAPHTHOFLAVONE, Method: STANDARD PLATE) was “active; positive”.

`O=[N+]([O-])c1ccccc1O` was tested, and the mutagenic call (Test System: AMES SALMONELLA TYPHIMURIUM, Strain/Indicator: TA98, Metabolic Activation: HAMSTER, LIVER, S-9, AROCLOR 1254, FLAVIN MONONUCLEOTIDE, Method: PREINCUBATION) was “inactive; negative”, the mutagenic call [1] was “inactive; negative” and the mutagenic call (Test System: AMES SALMONELLA TYPHIMURIUM, Strain/Indicator: TA98, Metabolic Activation: RAT, LIVER, S-9, KANECHLOR 500, Method: PREINCUBATION) was “inactive; negative”. The mutagenic call (Test System: AMES SALMONELLA TYPHIMURIUM, Strain/Indicator: TA98, Method: PREINCUBATION) was “inactive; negative”, the mutagenic call (Test System: AMES SALMONELLA TYPHIMURIUM, Strain/Indicator: TA100, Metabolic Activation: HAMSTER, LIVER, S-9, AROCLOR 1254, FLAVIN MONONUCLEOTIDE, Method: PREINCUBATION) was “inactive; negative” and the mutagenic call [2] was “inactive; negative”. For the same compound, the mutagenic call (Test System: AMES SALMONELLA TYPHIMURIUM, Strain/Indicator: TA100, Metabolic Activation: RAT, LIVER, S-9, KANECHLOR 500, Method: PREINCUBATION) was “inactive; negative”, the mutagenic call (Test System: AMES SALMONELLA TYPHIMURIUM, Strain/Indicator: TA100, Method: PREINCUBATION) was “inactive; negative” and the mutagenic call [3] was “inactive; negative”. For the same compound, the mutagenic call (Test System: AMES SALMONELLA TYPHIMURIUM, Strain/Indicator: TA1535, Method: PREINCUBATION) was “inactive; negative”, the mutagenic call [4] was “inactive; negative” and the mutagenic call (Test System: AMES SALMONELLA TYPHIMURIUM, Strain/Indicator: TA1537, Method: PREINCUBATION) was “inactive; negative”. For the same compound, the mutagenic call (Test System: AMES SALMONELLA TYPHIMURIUM, Strain/Indicator: TA1538, Metabolic Activation: NONE, Method: PREINCUBATION) was “inactive; negative” and the mutagenic call (Test System: AMES SALMONELLA TYPHIMURIUM, Strain/Indicator: TA1538, Method: PREINCUBATION) was “inactive; negative”.

`CC(N)(CN=[N+]=[N-])C(=O)O` (configuration not stated) was tested, and the mutagenic call (Test System: AMES SALMONELLA TYPHIMURIUM, Strain/Indicator: TA1530, Metabolic Activation: NONE, Method: STANDARD PLATE) was “active; positive”.

With `FC(F)(F)c1ccccc1CN1C2c3ccccc3-c3ccccc3C21` (configuration not stated) the mutagenic call [5] was “active; positive”.

`Nc1ccc2nc3ccccc3nc2c1` was tested, and the mutagenic call [1] was “inactive; negative” and the mutagenic call (Test System: AMES SALMONELLA TYPHIMURIUM, Strain/Indicator: TA98, Metabolic Activation: RAT, LIVER, S-9, PCB, Method: PREINCUBATION) was “active; positive”.

In the case of `Cc1ccccc1N=O`, the mutagenic call (Test System: AMES SALMONELLA TYPHIMURIUM, Strain/Indicator: TA98, Metabolic Activation: NONE, Method: STANDARD PLATE) is reported as “inactive; negative”, the mutagenic call (Test System: AMES SALMONELLA TYPHIMURIUM, Strain/Indicator: TA98, Metabolic Activation: RAT, LIVER, S-9, AROCLOR 1254, Method: PREINCUBATION) is reported as “inactive; negative” and the mutagenic call (Test System: AMES SALMONELLA TYPHIMURIUM, Strain/Indicator: TA98, Metabolic Activation: RAT, LIVER, S-9, AROCLOR 1254, Method: STANDARD PLATE) is reported as “inactive; negative”. For the same compound, the mutagenic call [5] was “inactive; negative” and the mutagenic call (Test System: AMES SALMONELLA TYPHIMURIUM, Strain/Indicator: TA100, Metabolic Activation: RAT, LIVER, S-9, AROCLOR 1254, Method: STANDARD PLATE) was “active; positive”.

With `Fc1cc2cccnc2c2ccccc12` the mutagenic call (Test System: AMES SALMONELLA TYPHIMURIUM, Strain/Indicator: TA100, Metabolic Activation: RAT, LIVER, S-9, PHENOBARBITAL AND 5,6-BENZOFLAVONE, Method: PREINCUBATION) was “active; positive”.

For `CCCCN(CO)N=O`, the mutagenic call (Test System: CHINESE HAMSTER V-79, Strain/Indicator: V-79/OUABAIN, Metabolic Activation: NONE) was “active; positive”.

In the case of `CC(=O)N(O)CCCCCNC(=O)CCC(=O)N(O)CCCCCNC(=O)CCC(=O)N(O)CCCCCN`, the mutagenic call (Test System: MOUSE LYMPHOMA, Strain/Indicator: L5178Y (TK+/TK-), Metabolic Activation: NONE, Method: SUSPENSION/PLATE) is reported as “active; positive. reevaluation of results: positive” and the mutagenic call (Test System: MOUSE LYMPHOMA, Strain/Indicator: L5178Y (TK+/TK-), Metabolic Activation: RAT, LIVER, S-9, AROCLOR 1254, Method: SUSPENSION/PLATE) is reported as “active; positive. reevaluation of results: positive”.

With `Cc1ccc(CCl)cc1` the mutagenic call [5] was “inactive; negative”.

With `COc1ccc(C(=O)Nc2ccccc2)cc1[N+](=O)[O-]` the mutagenic call (Test System: AMES SALMONELLA TYPHIMURIUM, Strain/Indicator: TA97, Metabolic Activation: HAMSTER, LIVER, S-9, AROCLOR 1254 (10%), Method: PREINCUBATION) was “active; positive”, the mutagenic call (Test System: AMES SALMONELLA TYPHIMURIUM, Strain/Indicator: TA97, Metabolic Activation: NONE, Method: PREINCUBATION) was “inactive; negative” and the mutagenic call (Test System: AMES SALMONELLA TYPHIMURIUM, Strain/Indicator: TA97, Metabolic Activation: RAT, LIVER, S-9, AROCLOR 1254 (10%), Method: PREINCUBATION) was “active; positive”. For the same compound, the mutagenic call (Test System: AMES SALMONELLA TYPHIMURIUM, Strain/Indicator: TA98, Metabolic Activation: HAMSTER, LIVER, S-9, AROCLOR 1254 (10%), Method: PREINCUBATION) was “active; positive”, the mutagenic call [1] was “inactive; negative” and the mutagenic call (Test System: AMES SALMONELLA TYPHIMURIUM, Strain/Indicator: TA98, Metabolic Activation: RAT, LIVER, S-9, AROCLOR 1254 (10%), Method: PREINCUBATION) was “active; positive”. For the same compound, the mutagenic call (Test System: AMES SALMONELLA TYPHIMURIUM, Strain/Indicator: TA100, Metabolic Activation: HAMSTER, LIVER, S-9, AROCLOR 1254 (10%), Method: PREINCUBATION) was “active; positive”, the mutagenic call [2] was “active; positive” and the mutagenic call (Test System: AMES SALMONELLA TYPHIMURIUM, Strain/Indicator: TA100, Metabolic Activation: RAT, LIVER, S-9, AROCLOR 1254 (10%), Method: PREINCUBATION) was “active; positive”. The mutagenic call (Test System: AMES SALMONELLA TYPHIMURIUM, Strain/Indicator: TA1535, Metabolic Activation: HAMSTER, LIVER, S-9, AROCLOR 1254 (10%), Method: PREINCUBATION) was “inactive; negative”, the mutagenic call [3] was “inactive; negative” and the mutagenic call (Test System: AMES SALMONELLA TYPHIMURIUM, Strain/Indicator: TA1535, Metabolic Activation: RAT, LIVER, S-9, AROCLOR 1254 (10%), Method: PREINCUBATION) was “inactive; negative”. For the same compound, the mutagenic call (Test System: AMES SALMONELLA TYPHIMURIUM, Strain/Indicator: TA1537, Metabolic Activation: HAMSTER, LIVER, S-9, AROCLOR 1254 (10%), Method: PREINCUBATION) was “active; positive”, the mutagenic call [4] was “inactive; negative” and the mutagenic call (Test System: AMES SALMONELLA TYPHIMURIUM, Strain/Indicator: TA1537, Metabolic Activation: RAT, LIVER, S-9, AROCLOR 1254 (10%), Method: PREINCUBATION) was “active; positive”.

`CC(OP(=O)(OC(C)C(Br)CBr)OC(C)C(Br)CBr)C(Br)CBr` (configuration not stated) was tested, and the mutagenic call (Test System: AMES SALMONELLA TYPHIMURIUM, Strain/Indicator: TA100, Metabolic Activation: RAT, LIVER, MICROSOMES, PHENOBARBITAL, Method: PREINCUBATION) was “active; positive” and the mutagenic call (Test System: AMES SALMONELLA TYPHIMURIUM, Strain/Indicator: TA100, Metabolic Activation: RAT, LIVER, MICROSOMES, Method: PREINCUBATION) was “active; positive”.

With `COC(C)CCO` (configuration not stated) the mutagenic call [1] was “inactive; negative”, the mutagenic call (Test System: AMES SALMONELLA TYPHIMURIUM, Strain/Indicator: TA98, Metabolic Activation: RAT LIVER S-9, PHENOBARBITAL AND BETA-NAPHTHOFLAVONE, Method: PREINCUBATION) was “inactive; negative” and the mutagenic call [2] was “inactive; negative”. For the same compound, the mutagenic call (Test System: AMES SALMONELLA TYPHIMURIUM, Strain/Indicator: TA100, Metabolic Activation: RAT LIVER S-9, PHENOBARBITAL AND BETA-NAPHTHOFLAVONE, Method: PREINCUBATION) was “inactive; negative”, the mutagenic call [3] was “inactive; negative” and the mutagenic call (Test System: AMES SALMONELLA TYPHIMURIUM, Strain/Indicator: TA1535, Metabolic Activation: RAT LIVER S-9, PHENOBARBITAL AND BETA-NAPHTHOFLAVONE, Method: PREINCUBATION) was “inactive; negative”. For the same compound, the mutagenic call [4] was “inactive; negative”, the mutagenic call (Test System: AMES SALMONELLA TYPHIMURIUM, Strain/Indicator: TA1537, Metabolic Activation: RAT LIVER S-9, PHENOBARBITAL AND BETA-NAPHTHOFLAVONE, Method: PREINCUBATION) was “inactive; negative” and the mutagenic call (Test System: E.COLI, Strain/Indicator: WP2UVRA/PKM101, Metabolic Activation: NONE, Method: PREINCUBATION) was “inactive; negative”. For the same compound, the mutagenic call (Test System: E.COLI, Strain/Indicator: WP2UVRA/PKM101, Metabolic Activation: RAT LIVER S-9, PHENOBARBITAL AND BETA-NAPHTHOFLAVONE, Method: PREINCUBATION) was “inactive; negative”.
